# Laboratory results taken from article PMC9822072, “Synthesis and Structure–Activity Relationship of 2,6-Disubstituted Thiosemicarbazone Derivatives of Pyridine as Potential Antituberculosis Agents” (Materials, 2023).
# Read-outs that look alike come from different tables or passages of the source.
# Columns and labels:
# [1] = system: Pseudomonas aeruginosa ATCC 9027; test: Antibacterial microdilution broth method; format: cell-based
# Description: (§1) The antibacterial and antifungal activities of compounds 4–9 were screened by the microdilution broth method using Mueller–Hinton broth for the growth of bacteria and Mueller–Hinton broth with 2% glucose for the growth of fungi. The antimicrobial assays were carried out following a previous study. The MICs of the aforementioned derivatives were evaluated for the panel of reference microorganisms from the ATCC (American Type Culture Collection), including Gram-positive bacteria (Staphylococcus aureus ATCC 25923, Staphylococcus epidermidis ATCC 12228, Micrococcus luteus ATCC 10240, Bacillus subtilis ATCC 6633, and Bacillus cereus ATCC 10876), Gram-negative bacteria (Escherichia coli ATCC 25922, Proteus mirabilis ATCC 12453, Klebsiella pneumoniae ATCC 13883, and Pseudomonas aeruginosa ATCC 9027), and fungi (Candida albicans ATCC 102231 and Candida parapsilosis ATCC 22019) (LGC Standards, Teddington, Middlesex, UK). Vancomycin (VAN), ciprofloxacin (CIP), and fluconazole (FCZ) were used as standard drugs for comparison. Each experiment was performed in triplicate.
# [2] = system: Escherichia coli ATCC 25922; test: Antibacterial microdilution broth method; format: cell-based
# Description: as §1
# [3] = system: Bacillus cereus ATCC 10876; test: Antibacterial microdilution broth method; format: cell-based
# Description: as §1
# [4] = system: Staphylococcus epidermidis ATCC 12228; test: Antibacterial microdilution broth method; format: cell-based; details: for MIC: Staphylococcus epidermidis
# Description: as §1
# [5] = system: Bacillus subtilis ATCC 6633; test: Antibacterial microdilution broth method; format: cell-based
# Description: as §1
# [6] = system: Staphylococcus aureus ATCC 25923; test: Antibacterial microdilution broth method; format: cell-based; details: for MIC: Staphylococcus aureus
# Description: as §1
# [7] = system: Micrococcus luteus ATCC 10240; test: Antibacterial microdilution broth method; format: cell-based
# Description: as §1
# [8] = system: Klebsiella pneumoniae ATCC 13883; test: Antibacterial microdilution broth method; format: cell-based
# Description: as §1
# [9] = system: Proteus mirabilis ATCC 12453; test: Antibacterial microdilution broth method; format: cell-based
# Description: as §1
# [10] = system: Mycobacterium strains; set-up: method as in PMID 32061963, PMID 36013649; details: cited from earlier work
# [11] = system: other pathogenic microorganisms; set-up: method as in PMID 32061963, PMID 36013649; details: cited from earlier work
# [12] = system: M. tuberculosis H37Rv (standard strain); test: Tuberculostatic activity, twofold serial microdilution with Alamar Blue; format: cell-based, Mycobacterium tuberculosis; details: 21 days at 37 °C; for MIC: Mycobacterium tuberculosis, H37RV, 504 h
# [13] = system: HaCaT cells; test: Cytotoxic activity, sulforhodamine B method; details: for IC50: Homo sapiens, 72 h, read-out: IC50-HaCaT SULF; for cytotoxicity against noncancer cells (in words): MTT and sulforhodamine B methods together
# [14] = system: HaCaT cells; test: Cytotoxic activity, MTT method; format: cell-based; details: Homo sapiens, 72 h, 3 days of incubation
# [15] = system: Candida parapsilosis ATCC 22019; test: Antifungal microdilution broth method; format: cell-based; details: Lodderomyces parapsilosis, ATCC22019; Mueller–Hinton broth with 2% glucose; read-out: MIC C. parapsilosis ATCC 22019
# Description: as §1
# [16] = system: Candida albicans ATCC 102231; test: Antifungal microdilution broth method; format: cell-based; details: ATCC102231, Mueller–Hinton broth with 2% glucose, read-out: MIC C. albicans ATCC 102231
# Description: as §1
# [17] = system: Gram-positive bacteria; test: Antibacterial microdilution broth method, summary in text; format: cell-based; details: read-out: MIC Gram-positive bacteria
# Description: as §1
# [18] = ATCC9027, Mueller–Hinton broth, read-out: MIC P. aeruginosa ATCC 9027
# [19] = ATCC25922, Mueller–Hinton broth, read-out: MIC E. coli ATCC 25922
# [20] = ATCC10876, Mueller–Hinton broth, read-out: MIC B. cereus ATCC 10876
# [21] = ATCC12228, Mueller–Hinton broth, read-out: MIC S. epidermidis ATCC 12228
# [22] = ATCC6633, Mueller–Hinton broth, read-out: MIC B. subtilis ATCC 6633
# [23] = ATCC25923, Mueller–Hinton broth, read-out: MIC S. aureus ATCC 25923
# [24] = ATCC10240, Mueller–Hinton broth, read-out: MIC M. luteus ATCC 10240
# [25] = ATCC13883, Mueller–Hinton broth, read-out: MIC K. pneumoniae ATCC 13883
# [26] = ATCC12453, Mueller–Hinton broth, read-out: MIC P. mirabilis ATCC 12453
Compound,MIC [12],IC50 [13],cytotoxicity against noncancer cells (in words) [13],IC50 [14],MIC [15],MIC [16],"MIC [1, 18]","MIC [2, 19]","MIC [3, 20]","MIC [4, 21]","MIC [5, 22]","MIC [6, 23]","MIC [7, 24]","MIC [8, 25]","MIC [9, 26]",melting point,also measured
"CN[C@H](CC(C)C)C(=O)N[C@H]1C(=O)N[C@@H](CC(N)=O)C(=O)N[C@H]2C(=O)N[C@H]3C(=O)N[C@H](C(=O)N[C@H](C(=O)O)c4cc(O)cc(O)c4-c4cc3ccc4O)[C@H](O)c3ccc(c(Cl)c3)Oc3cc2cc(c3O[C@@H]2O[C@H](CO)[C@@H](O)[C@H](O)[C@H]2O[C@H]2C[C@](C)(N)[C@H](O)[C@H](C)O2)Oc2ccc(cc2Cl)[C@H]1O [VAN, Vancomycin, reference compound]",,,,,,,,,,,,,,,,,"MIC ([1]; ATCC9027, read-out: MIC P. aeruginosa ATCC 9027): 0.49 µg/mL; MIC ([2]; ATCC25922, read-out: MIC E. coli ATCC 25922): 0.004 µg/mL; MIC ([3]; ATCC10876, read-out: MIC B. cereus ATCC 10876): 0.98 µg/mL; MIC ([4]; ATCC12228, read-out: MIC S. epidermidis ATCC 12228): 0.98 µg/mL; MIC ([5]; ATCC6633, read-out: MIC B. subtilis ATCC 6633): 0.24 µg/mL; MIC ([6]; ATCC25923, read-out: MIC S. aureus ATCC 25923): 0.98 µg/mL; MIC ([7]; ATCC10240, read-out: MIC M. luteus ATCC 10240): 0.12 µg/mL; MIC ([8]; ATCC13883, read-out: MIC K. pneumoniae ATCC 13883): 0.06 µg/mL; MIC ([9]; ATCC12453, read-out: MIC P. mirabilis ATCC 12453): 0.03 µg/mL"
N/C(=N\NC(=S)N1CCOCC1)c1cc(-c2ccccc2)ccn1 [MKG-1b],,,,,,,,,,,,,,,,,MIC toward Mycobacterium strains [10]: 3.1 µg/mL; MIC other pathogenic microorganisms [11]: 0.98 to 500 µg/mL
"NNC(=O)c1ccncc1 [INH, isoniazid, reference compound]",0.125 µg/mL,,,,,,,,,,,,,,,,
"NC(=NNC(=S)N1CCOCC1)c1cccc(N2CCCCC2)n1 [Compound 6, N’-(Morpholine-4-Carbonothioyl)-6-(Piperidin-1-Yl)Picolinohydrazonamide]",8 µg/mL,> 50 µg/mL,inhibited cell metabolic activity while maintaining cell viability,9.49 µg/mL,1000 µg/mL,1000 µg/mL,> 1000 µg/mL,> 1000 µg/mL,7.8 µg/mL,0.98 µg/mL,7.8 µg/mL,1.95 µg/mL,0.98 µg/mL,> 1000 µg/mL,> 1000 µg/mL,177 to 178 °C,
"NC(=NNC(=S)N1CCCC1)c1cccc(Oc2ccccc2)n1 [Compound 9, 6-Phenoxy-N’-(Pyrrolidine-1-Carbonothioyl)Picolinohydrazonamide]",8 µg/mL,1.31 µg/mL,showed the same while losing cell viability,0.06 µg/mL,1000 µg/mL,1000 µg/mL,1000 µg/mL,1000 µg/mL,3.9 µg/mL,0.49 µg/mL,0.49 µg/mL,0.98 µg/mL,0.49 µg/mL,> 1000 µg/mL,> 1000 µg/mL,170 to 173 °C,
"NC(=NNC(=S)N1CCCC1)c1cccc(N2CCCC2)n1 [Compound 5, 6-(Pyrrolidin-1-Yl)-N’-(Pyrrolidine-1-Carbonothioyl)Picolinohydrazonamide]",2 µg/mL,> 50 µg/mL,no cytotoxicity,> 50 µg/mL,1000 µg/mL,250 µg/mL,> 1000 µg/mL,> 1000 µg/mL,7.8 µg/mL,0.49 µg/mL,0.49 µg/mL,0.49 µg/mL,0.49 µg/mL,> 1000 µg/mL,> 1000 µg/mL,200 to 201 °C,MIC [17]: 0.49 µg/mL
"NC(=NNC(=S)N1CCOCC1)c1cccc(N2CCCC2)n1 [Compound 4, N’-(Morpholine-4-Carbonothioyl)-6-(Pyrrolidin-1-Yl)Picolinohydrazonamide]",16 µg/mL,> 50 µg/mL,no cytotoxicity,> 50 µg/mL,> 1000 µg/mL,250 µg/mL,> 1000 µg/mL,> 1000 µg/mL,7.8 µg/mL,1.95 µg/mL,7.8 µg/mL,3.9 µg/mL,7.8 µg/mL,> 1000 µg/mL,> 1000 µg/mL,180 to 182 °C,
"NC(=NNC(=S)N1CCOCC1)c1cccc(Oc2ccccc2)n1 [Compound 8, N’-(Morpholine-4-Carbonothioyl)-6-Phenoxypicolinohydrazonamide]",8 µg/mL,50 µg/mL,inhibited cell metabolic activity while maintaining cell viability,0.57 µg/mL,> 1000 µg/mL,> 1000 µg/mL,> 1000 µg/mL,> 1000 µg/mL,> 1000 µg/mL,31.3 µg/mL,> 1000 µg/mL,250 µg/mL,125 µg/mL,> 1000 µg/mL,> 1000 µg/mL,131 to 134 °C,
"NC(=NNC(=S)N1CCCC1)c1cccc(N2CCCCC2)n1 [Compound 7, 6-(Piperidin-1-Yl)-N’-(Pyrrolidine-1-Carbonothioyl)Picolinohydrazonamide]",2 µg/mL,> 50 µg/mL,no cytotoxicity,> 50 µg/mL,7.8 µg/mL,15.6 µg/mL,> 1000 µg/mL,> 1000 µg/mL,1.95 µg/mL,0.49 µg/mL,1.95 µg/mL,0.49 µg/mL,1.95 µg/mL,> 1000 µg/mL,> 1000 µg/mL,166 to 168 °C,MIC H37Rv [12]: 2 µg/mL; MIC [17]: 0.49 µg/mL; MIC S. epidermidis ATCC 12228 ([4]; Mueller–Hinton broth): 0.49 µg/mL; MIC S. aureus ATCC 25923 ([6]; Mueller–Hinton broth): 0.49 µg/mL
"O=C(O)c1cn(C2CC2)c2cc(N3CCNCC3)c(F)cc2c1=O [CIP, ciprofloxacin, reference compound]",,,,,,,,,0.12 µg/mL,0.49 µg/mL,0.03 µg/mL,0.49 µg/mL,0.98 µg/mL,,,,
"OC(Cn1cncn1)(Cn1cncn1)c1ccc(F)cc1F [FCZ, fluconazole, reference compound]",,,,,1.95 µg/mL,0.98 µg/mL,,,,,,,,,,,
